Results as given in US12570684B2 (UNIVERSITY OF TENNESSEE RESEARCH FOUNDATION, priority 2020, dated 2026).
≈ marks a conversion by molar mass, not a printed value. Read-outs that look alike come from different tables or passages of the source.

Tests used:
AglH (M. jannaschii) = target: T1, AglH (M. jannaschii) (Methanocaldococcus jannaschii, UniProt Q58513); assay: AglH assay
T1 sequence (Q58513 1-301): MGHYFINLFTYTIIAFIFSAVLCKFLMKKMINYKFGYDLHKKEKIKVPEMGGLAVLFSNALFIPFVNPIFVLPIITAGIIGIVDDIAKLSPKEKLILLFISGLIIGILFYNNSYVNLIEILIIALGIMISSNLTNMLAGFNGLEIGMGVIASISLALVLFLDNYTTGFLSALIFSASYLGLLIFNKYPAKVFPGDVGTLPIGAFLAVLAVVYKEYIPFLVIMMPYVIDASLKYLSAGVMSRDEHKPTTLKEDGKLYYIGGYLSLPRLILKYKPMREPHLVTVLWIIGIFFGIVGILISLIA

WecA (E. coli) = WecA (E. coli) (Escherichia coli, UniProt P0AC78); assay: WecA assay
Procedure: Preparation of membrane fraction P-60 containing WecA. E. coli B21 wecA strain were harvested by centrifugation (4,700 rpm) at 4° C. followed by washing with 0.9% saline solution (thrice). The washed cell pellets were washed with homogenization buffer (containing 50 mM K2HPO4, 5 mM MgCl2, 5 mM 1,4-dithio-DL-threitol, and 10% glycerol, pH=7.2) (thrice), and approximately 5 g of pellet (wet weight) was collected. The washed cell pellets were suspended in homogenization buffer and disrupted by probe sonication on ice (5 s on and 2 s off for 1 min, then cool down for 1.5 min., 5 cycles, cool down for 15 min, and then, 5 s on and 2 s off for 1 min., cool down for 1.5 min, 5 cycles). The resulting suspension was centrifuged at 4,700×g for 15 min. at 4° C. to remove unbroken cells. The lysate was centrifuged at 25,000×g for 20 min. at 4° C. The supernatant was subjected to ultracentrifugation at 60,000×g for 1 h at 4° C. The supernatant was discarded, and the membrane fraction containing WecA enzyme (P-60) was suspended in the Tris-HCl buffer (pH=7.5). Total protein concentrations were approximately 8 to 10 mg/mL. Aliquots were stored in Eppendorf tubes at −80° C.

WecA = conditions: background, reported; cited from earlier work
[1] = target: MraY (Hydrogenivirga sp.) (Hydrogenivirga sp. 128-5-R1-1, UniProt Z9Y2G8N0L0); assay: MraY assay; type: biochemical
Procedure: Expression and purification of HyMraY. The gene mraY of Hydrogenivirga spp. 128-5-R1-1 was cloned with a N-terminal His6 tag into a pET22b vector. […] The proteins were purified using a nickel, cation exchange, and size exclusion chromatography.
MraY assay. MraY assay substrates, Park's nucleotide-N^ε-C6-dansylthiourea, neryl phosphate, were chemically synthesized according to the reported procedures.^7 Park's nucleotide-N^ε-C6-dansylthiourea (2 mM stock solution, 1.88 jiL), MgCl2 (0.5 M, 5 jiL), KCl (2 M, 5 jiL), Triton X-100 (0.5%, 5.63 jiL), Tris buffer (pH 8.0, 50 mM), neryl phosphate (0.1 M, 2.25 jiL), and inhibitor molecule (0-50 .ig/mL in Tris buffer) were placed in a 1.5 mL Eppendorf tube. […] (26° C.) and quenched with CHCl3 (100 jiL). […] The aqueous phase was assayed via reverse-phase HPLC.

DPAGT1 (Human) = target: T2, DPAGT1 (Human) (Homo sapiens, UniProt Q9H3H5); assay: DPAGT1 assay; type: biochemical
T2 construct: made in house; host or cells: Expi293 cells (suspension)
T2 sequence (Q9H3H5 1-408): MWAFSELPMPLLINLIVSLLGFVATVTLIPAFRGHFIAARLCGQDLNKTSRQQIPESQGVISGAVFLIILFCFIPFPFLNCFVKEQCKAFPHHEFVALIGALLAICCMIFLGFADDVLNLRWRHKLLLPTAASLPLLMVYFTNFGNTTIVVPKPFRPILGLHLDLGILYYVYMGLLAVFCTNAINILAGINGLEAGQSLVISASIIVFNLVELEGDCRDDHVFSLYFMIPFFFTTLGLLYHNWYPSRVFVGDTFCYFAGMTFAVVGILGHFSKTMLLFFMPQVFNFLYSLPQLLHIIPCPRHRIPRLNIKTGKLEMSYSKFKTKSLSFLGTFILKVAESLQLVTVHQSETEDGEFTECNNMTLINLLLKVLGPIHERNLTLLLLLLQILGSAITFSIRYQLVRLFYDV
Procedure: DPAGT1 expression and purification. DPAGT1 was expressed in suspended Expi293 cells for 36 h. The cells were lysed by drawing through a 26 g needle (10 times) and membrane protein was extracted using buffer containing 1% decyl f3-D-maltopyranoside detergent. DPAGT1 was purified using HA-agarose resin and a superdex 200 size exclusion column.

PD002 [2] = assay: Scratch (wound healing) assay; type: cell-based; conditions: 0.2 μM, 24 h; untreated PD002 63%
Procedure: Scratch Assay. A confluent monolayer was formed in 24-well plates. The monolayer was scratched by a sterile 200 μL pipette tip and washed with PBS to remove cell debris. Complete medium with CPPB (5) (0, 0.05, 0.1, 0.2 μM) were added and scratched areas were photographed with microscope. The scratched cells were incubated at 37° C., 5% CO2. After 24 h, medium was removed and cells were stained with a 1:1 mixture of crystal violet and PBS for 5 min., washed with PBS twice, and photographed with microscope. Wound areas were measured and recovered areas were calculated.

PD002 [3] = assay: Checkerboard synergy (FIC index) with paclitaxel; type: cell-based
Procedure: The synergistic or antagonistic activities of CPPB were assessed in vitro via checkerboard technique.

[4] = read-out: IC50 AglH (M. jannaschii)

Chain of WecA (E. coli) (P0AC78 whole entry): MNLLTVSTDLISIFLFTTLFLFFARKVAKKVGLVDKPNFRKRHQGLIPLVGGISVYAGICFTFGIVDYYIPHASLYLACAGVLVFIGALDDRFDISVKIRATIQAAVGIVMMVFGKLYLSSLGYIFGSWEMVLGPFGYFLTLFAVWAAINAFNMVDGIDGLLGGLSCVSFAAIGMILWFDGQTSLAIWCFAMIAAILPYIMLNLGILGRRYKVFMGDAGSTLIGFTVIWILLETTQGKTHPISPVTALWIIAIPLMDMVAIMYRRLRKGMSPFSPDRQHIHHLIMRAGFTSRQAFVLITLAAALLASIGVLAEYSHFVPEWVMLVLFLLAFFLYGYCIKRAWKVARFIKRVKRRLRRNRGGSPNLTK
Chain of MraY (Hydrogenivirga sp.) (Z9Y2G8N0L0 7-365 limits assumed): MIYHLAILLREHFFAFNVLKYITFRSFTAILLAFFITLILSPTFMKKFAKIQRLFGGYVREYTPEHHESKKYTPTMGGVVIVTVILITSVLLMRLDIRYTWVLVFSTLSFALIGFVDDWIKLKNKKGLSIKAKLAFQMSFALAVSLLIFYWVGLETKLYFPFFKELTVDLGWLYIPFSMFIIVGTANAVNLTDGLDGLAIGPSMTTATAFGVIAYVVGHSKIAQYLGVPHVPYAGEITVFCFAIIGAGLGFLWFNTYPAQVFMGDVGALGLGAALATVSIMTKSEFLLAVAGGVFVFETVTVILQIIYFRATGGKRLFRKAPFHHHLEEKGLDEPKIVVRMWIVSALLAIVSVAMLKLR

COC1C(O)[C@H](n2ccc(=O)[nH]c2=O)O[C@@H]1[C@@H](O[C@H]1OC(CNCc2ccc(N3CCC(c4ccc(OC(F)(F)F)cc4)CC3)cc2)=C[C@H](O)[C@@H]1O)C(N)=O (stereo partly drawn) [CPPA, (2R)-2-(((2S,3S,4S)-3,4-Dihydroxy-6-(((4-(4-(4-(trifluoromethoxy)phenyl)piperidin-1-yl)benzyl)-amino)-methyl)-3,4-dihydro-2H-pyran-2-yl)oxy)-2-((2S,5R)-5-(2,4-dioxo-3,4-dihydropyrimidin-1(2H)-yl)-4-hydroxy-3-methoxytetrahydrofuran-2-yl)acetamide]
IC50 (AglH (M. jannaschii)): > 50 µM
IC50 (WecA (E. coli)): > 50 µM

CCCCc1ccc(NC(=O)C2=CCN(C)[C@@H]([C@H](O[C@@H]3O[C@H](CN)[C@@H](O)[C@H]3O)[C@H]3O[C@@H](n4ccc(=O)[nH]c4=O)[C@H](O)[C@@H]3O)C(=O)N2C)cc1 [CPZEN-45]
IC50 WecA (WecA): ~0.058 mg/L (≈ 0.0842 µM)

NC(=O)[C@H](O[C@H]1OC(C(=O)NCc2ccc(N3CCC(c4ccc(OC(F)(F)F)cc4)CC3)cc2)=C[C@H](O)[C@@H]1O)[C@H]1O[C@@H](n2ccc(=O)[nH]c2=O)C(O)C1O (stereo partly drawn) [DM-CPPB, (2S,3S,4S)-2-((1R)-2-Amino-1-((2S,5R)-5-(2,4-dioxo-3,4-dihydropyrimidin-1(2H)-yl)-3,4-dihydroxy-tetrahydrofuran-2-yl)-2-oxoethoxy)-3,4-dihydroxy-N-(4-(4-(4-(trifluoromethoxy)phenyl)-piperidin-1-yl)benzyl)-3,4-dihydro-2H-pyran-6-carboxamide]
IC50 (AglH (M. jannaschii)): > 50 µM
IC50 (WecA (E. coli)): 30 µM

NC(=O)[C@H](O[C@H]1OC(C(=O)N[C@H]2CCCCNC2=O)=C[C@H](O)[C@@H]1O)[C@H]1O[C@@H](n2ccc(=O)[nH]c2=O)C(O)C1O (stereo partly drawn) [Dimethyl capuramycin, (2S,3S,4S)-2-((1R)-2-Amino-1-((2S,5R)-5-(2,4-dioxo-3,4-dihydropyrimidin-1(2H)-yl)-3,4-dihydroxy-tetrahydrofuran-2-yl)-2-oxoethoxy)-3,4-dihydroxy-N—((S)-2-oxoazepan-3-yl)-3,4-dihydro-2H-pyran-6-carboxamide]
IC50 (AglH (M. jannaschii)): > 50 µM
IC50 [1]: > 50 µM
IC50 (WecA (E. coli)): 35 µM
IC50 (DPAGT1 (Human)): > 50 µM

Nc1ccn([C@@H]2O[C@H](CO)[C@@H](O)C2(F)F)c(=O)n1 [Gemcitabine]
wound-healing rate (PD002 [2]): 43%

COC1C(O)[C@@H]([C@@H](O[C@H]2OC(C(=O)NCc3ccc(N4CCC(c5ccc(OC(F)(F)F)cc5)CC4)cc3)=C[C@H](O)[C@@H]2O)C(N)=O)O[C@H]1n1ccc(=O)[nH]c1=O (stereo partly shown) [I-CPPB]
IC50 (AglH (M. jannaschii)): 15 µM
IC50 (WecA (E. coli)): 20 µM
IC50 (DPAGT1 (Human)): 0.6 µM

CC(=O)O[C@H]1C(=O)[C@@]2(C)[C@H]([C@H](OC(=O)c3ccccc3)[C@]3(O)C[C@H](OC(=O)[C@H](O)[C@@H](NC(=O)c4ccccc4)c4ccccc4)C(C)=C1C3(C)C)[C@]1(OC(C)=O)CO[C@@H]1C[C@@H]2O [Paclitaxel, reference compound]
IC50 (PD002 [3]; PD002, alone, read-out: IC50 of the single agent against PD002): 1.25 µM
IC50 (PD002 [3]; PD002, read-out: IC50 CB (paclitaxel in combination), entry 1, with CPPB 0.10 μM): 0.63 µM
IC50 (PD002 [3]; PD002, read-out: IC50 CB (paclitaxel in combination), entry 2, with CPPB 0.10 μM): 0.16 µM
IC50 (PD002 [3]; PD002, read-out: IC50 CB (paclitaxel in combination), entry 3, with CPPB 0.20 μM): 0.0049 µM
IC50 (PD002 [3]; PD002, read-out: IC50 CB (paclitaxel in combination), entry 4, with CPPB 0.20 μM): 0.02 µM
IC50 (PD002 [3]; PD002, read-out: IC50 CB (paclitaxel in combination), entry 5, with CPPB 0.20 μM): 0.031 µM
IC50 (PD002 [3]; PD002, read-out: IC50 CB (paclitaxel in combination), entry 6, with CPPB 2.0 μM): 0.02 µM
IC50 (PD002 [3]; PD002, read-out: IC50 CB (paclitaxel in combination), entry 7, with CPPB 2.0 μM): 0.039 µM
IC50 (PD002 [3]; PD002, read-out: IC50 CB (paclitaxel in combination), entry 8, with CPPB 2.0 μM): 0.31 µM
IC50 (PD002 [3]; PD002, read-out: IC50 of paclitaxel against PD002 in combination with CPPB, with CPPB (0.1-2.0 μM)): 0.024 to 0.61 µM
improvement of cytostatic activity of paclitaxel (PD002 [3]; in combination with CPPB (0.2-2.0 μM)): over 250 times

COC1C(O)C(C(OC2OC(C(=O)NC3CCCCNC3=O)=CC(O)C2O)C(N)=O)OC1n1ccc(=O)[nH]c1=O [iso-Capuramycin, (2S,3S,4S)-2-((1R)-2-Amino-1-(2S,5R)-5-(2,4-dioxo-3,4-dihydropyrimidin-1(2H)-yl)-3-hydroxy-4-methoxytetrahydrofuran-2-yl)-2-oxoethoxy)-3,4-dihydroxy-N—((S)-2-oxoazepan-3-yl)-3,4-dihydro-2H-pyran-6-carboxamide]
IC50 (AglH (M. jannaschii)): 20 µM
IC50 (WecA (E. coli)): 30 µM
IC50 (DPAGT1 (Human)): 11.5 µM

(2R)-2-(((2S,3S,4S)-3,4-dihydroxy-6-(((4-(4-(4-(trifluoromethoxy)phenyl)pipendin-1-yl)-benzyl)amino)methyl)-3,4-dihydro-2H-pyran-2-yl)oxy)-2-((2S,5R)-5-(2,4-dioxo-3,4-dihydro-pyrimidin-1(2H)-yl)-3-hydroxy-4-methoxytetrahydrofuran-2-yl)acetamide [I-CPPA]
AglH inhibition at 50 μM (AglH (M. jannaschii); 50 μM concentration): did not inhibit
IC50 (AglH (M. jannaschii); [4]): > 50 µM
IC50 [1]: > 50 µM
MraY inhibition at 50 μM ([1]; 50 μM concentration): did not inhibit
WecA inhibition at 50 μM (WecA (E. coli); 50 μM concentration): did not inhibit
IC50 (WecA (E. coli); read-out: IC50 WecA (E. coli)): > 50 µM
IC50 (DPAGT1 (Human)): > 50 µM
DPAGT1 inhibition at 50 μM (DPAGT1 (Human); 50 μM concentration): did not inhibit

(2S,3S,4S)-2-((1R)-2-Amino-1-(2S,5R)-5-(2,4-dioxo-3,4-dihydropyrimidin-1(2H)-yl)-3,4-dimethoxy-tetrahydrofuran-2-yl)-2-oxoethoxy)-3,4-dihydroxy-N-(4-(4-(4-(trifluoromethoxy)-phenyl)piperidin-1-yl)benzyl)-3,4-dihydro-2H-pyran-6-carboxamide [OM-CPPB]
IC50 (AglH (M. jannaschii); [4]): 30 µM
IC50 [1]: 5 µM
IC50 (WecA (E. coli); read-out: IC50 WecA (E. coli)): 10 µM
DPAGT1 inhibitory activity (in words) (DPAGT1 (Human)): very low- or no-DPAGT1 inhibitor
IC50 (DPAGT1 (Human)): 20 µM
